Data published in US8952024B2, “Herbicidal pyrimidone derivatives” (E I du Pont de Nemours and Company, priority 2009, dated 2015).

Legend:
Assay type in all cases: in vivo
[1] = system: winter barley (Hordeum vulgare); test: Test B postemergence plant response; conditions: for Plant response rating, Barley: Postemergence
Outline: (§1)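 Plants grown in peat/vermiculite medium were sprayed postemergence at 2–18 cm height (1- to 4-leaf stage). After 13–15 days in the greenhouse, response was rated visually against untreated controls on a 0–100 scale (0 no effect, 100 complete control).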

[2] = system: canarygrass (Phalaris minor); test: Test B postemergence plant response; conditions: for Plant response rating, Canarygrass: Postemergence
Outline: as §1

[3] = system: chickweed (Stellaria media); test: Test B postemergence plant response; conditions: for Plant response rating, Chickweed: Postemergence
Outline: as §1

[4] = system: windgrass (Apera spica-venti); test: Test B postemergence plant response; conditions: for Plant response rating, Windgrass: Postemergence
Outline: as §1

[5] = system: bermudagrass (Cynodon dactylon); test: Test B pre-/postemergence plant response; conditions: for Plant response rating, Bermudagrass: Postemergence
Outline: (§2)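 Steps: sow seed in loam–sand soil and spray preemergence, or grow plants in peat-based medium to 1–4 leaves (2–18 cm) and spray postemergence; formulation is non-phytotoxic solvent plus surfactant; hold in greenhouse 13–15 days; score visually vs controls, 0 = no effect, 100 = complete control.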

wild oat (Avena fatua) = test: Test B pre-/postemergence plant response; conditions: for Plant response rating, Oat, Wild: Postemergence
Outline: as §2

[6] = system: ragweed (common ragweed, Ambrosia elatior); test: Test B pre-/postemergence plant response; conditions: for Plant response rating, Ragweed: Postemergence
Outline: as §2

[7] = system: large crabgrass (Digitaria sanguinalis); test: Test B pre-/postemergence plant response; conditions: for Plant response rating, Crabgrass, Large: Postemergence
Outline: as §2

soybean (Glycine max) = test: Test B pre-/postemergence plant response; conditions: for Plant response rating, Soybean: Postemergence
Outline: as §2

[8] = system: johnsongrass (Sorghum halepense); test: Test B pre-/postemergence plant response; conditions: for Plant response rating, Johnsongrass: Postemergence
Outline: as §2

[9] = system: velvetleaf (Abutilon theophrasti); test: Test B pre-/postemergence plant response; conditions: for Plant response rating, Velvetleaf: Postemergence
Outline: as §2

corn (Zea mays) = test: Test B pre-/postemergence plant response; conditions: for Plant response rating, Corn: Postemergence
Outline: as §2

[10] = system: woolly cupgrass (Eriochloa villosa); test: Test B pre-/postemergence plant response; conditions: for Plant response rating, Cupgrass, Woolly: Postemergence
Outline: as §2

[11] = system: Surinam grass (Brachiaria decumbens); test: Test B pre-/postemergence plant response; conditions: for Plant response rating, Surinam Grass: Postemergence
Outline: as §2

[12] = system: Italian ryegrass (Lolium multiflorum); test: Test B pre-/postemergence plant response; conditions: for Plant response rating, Ryegrass, Italian: Postemergence
Outline: as §2

[13] = system: lambsquarters (Chenopodium album); test: Test B pre-/postemergence plant response; conditions: for Plant response rating, Lambsquarters: Postemergence
Outline: as §2

[14] = system: blackgrass (Alopecurus myosuroides); test: Test B pre-/postemergence plant response; conditions: for Plant response rating, Blackgrass: Postemergence
Outline: as §2

[15] = system: yellow nutsedge (Cyperus esculentus); test: Test B pre-/postemergence plant response; conditions: for Plant response rating, Nutsedge, Yellow: Postemergence
Outline: as §2

[16] = 62 g ai/ha, postemergence, 0 is no effect, 100 is complete control, 13 to 15 days
[17] = 31 g ai/ha, 0 to 100 scale (0 no effect, 100 complete control)
[18] = 125 g ai/ha, scale 0 to 100 (0 no effect, 100 complete control)

CCn1c(-c2cc(F)cc(F)c2)ncc(C(=O)C2=C(O)CCCC2=O)c1=O [Compound 122]
60: Ragweed plant response rating (0 to 100 scale) [6, 16] | Plant response rating, Ragweed [6, 17] | Plant response rating, Lambsquarters [13, 17]
90: Velvetleaf plant response rating (0 to 100 scale) [9, 16] | Plant response rating, Surinam Grass [11, 18] | Plant response rating, Lambsquarters [13, 18]
65: Plant response rating, Chickweed ([3]; 16 g ai/ha, 0 to 100 scale) | Plant response rating, Bermudagrass ([5]; 16 g ai/ha, 0 to 100 scale) | Plant response rating, Crabgrass, Large ([7]; 16 g ai/ha, 0 to 100 scale) | Johnsongrass plant response rating (0 to 100 scale) [8, 16] | Plant response rating, Cupgrass, Woolly ([10]; 16 g ai/ha, 0 to 100 scale) | Plant response rating, Cupgrass, Woolly [10, 17] | Lambsquarters plant response rating (0 to 100 scale) [13, 16]
45: Plant response rating, Canarygrass [2, 18] | Plant response rating, Soybean (soybean (Glycine max); [17]) | Plant response rating, Johnsongrass [8, 17]
75: Plant response rating, Bermudagrass [5, 17] | Plant response rating, Ragweed [6, 18] | Crabgrass, Large plant response rating (0 to 100 scale) [7, 16] | Plant response rating, Crabgrass, Large [7, 17] | Soybean plant response rating (0 to 100 scale) (soybean (Glycine max); [16]) | Plant response rating, Johnsongrass [8, 18] | Plant response rating, Velvetleaf ([9]; 16 g ai/ha, 0 to 100 scale) | Plant response rating, Cupgrass, Woolly [10, 18] | Surinam Grass plant response rating (0 to 100 scale) [11, 16] | Plant response rating, Surinam Grass [11, 17] | Plant response rating, Nutsedge, Yellow [15, 18]
85: Plant response rating, Bermudagrass [5, 18] | Plant response rating, Crabgrass, Large [7, 18]
50: Plant response rating, Barley [1, 18] | Plant response rating, Windgrass [4, 18]
55: Plant response rating, Ragweed ([6]; 16 g ai/ha, 0 to 100 scale) | Plant response rating, Lambsquarters ([13]; 16 g ai/ha, 0 to 100 scale) | Plant response rating, Nutsedge, Yellow [15, 17]
5: Plant response rating, Windgrass ([4]; 16 g ai/ha, 0 to 100 scale) | Plant response rating, Windgrass [4, 17] | Plant response rating, Oat, Wild (wild oat (Avena fatua); 16 g ai/ha, 0 to 100 scale) | Plant response rating, Oat, Wild (wild oat (Avena fatua); [17]) | Plant response rating, Ryegrass, Italian ([12]; 16 g ai/ha, 0 to 100 scale) | Plant response rating, Ryegrass, Italian [12, 17] | Blackgrass plant response rating (0 to 100 scale) [14, 16] | Plant response rating, Blackgrass [14, 17]
35: Canarygrass plant response rating (0 to 100 scale) [2, 16] | Plant response rating, Oat, Wild (wild oat (Avena fatua); [18]) | Plant response rating, Nutsedge, Yellow ([15]; 16 g ai/ha, 0 to 100 scale)
40: Plant response rating, Ryegrass, Italian [12, 18]
0: Plant response rating, Barley ([1]; 16 g ai/ha, 0 to 100 scale) | Plant response rating, Barley [1, 17] | Plant response rating, Canarygrass ([2]; 16 g ai/ha, 0 to 100 scale) | Plant response rating, Corn (corn (Zea mays); 16 g ai/ha, 0 to 100 scale) | Plant response rating, Corn (corn (Zea mays); [17]) | Plant response rating, Blackgrass ([14]; 16 g ai/ha, 0 to 100 scale)
70: Chickweed plant response rating (0 to 100 scale) [3, 16] | Plant response rating, Chickweed [3, 17] | Cupgrass, Woolly plant response rating (0 to 100 scale) [10, 16] | Nutsedge, Yellow plant response rating (0 to 100 scale) [15, 16]
25: Plant response rating, Corn (corn (Zea mays); [18]) | Plant response rating, Surinam Grass ([11]; 16 g ai/ha, 0 to 100 scale)
98: Plant response rating, Velvetleaf [9, 18]
10: Barley plant response rating (0 to 100 scale) [1, 16] | Plant response rating, Canarygrass [2, 17] | Ryegrass, Italian plant response rating (0 to 100 scale) [12, 16]
15: Corn plant response rating (0 to 100 scale) (corn (Zea mays); [16]) | Plant response rating, Blackgrass [14, 18]
30: Windgrass plant response rating (0 to 100 scale) [4, 16] | Oat, Wild plant response rating (0 to 100 scale) (wild oat (Avena fatua); [16])
20: Plant response rating, Soybean (soybean (Glycine max); 16 g ai/ha, 0 to 100 scale) | Plant response rating, Johnsongrass ([8]; 16 g ai/ha, 0 to 100 scale)
80: Plant response rating, Chickweed [3, 18] | Bermudagrass plant response rating (0 to 100 scale) [5, 16] | Plant response rating, Soybean (soybean (Glycine max); [18]) | Plant response rating, Velvetleaf [9, 17]
